The test system of data set [1] is intracellular L. donovani. In words: L. donovani-infected macrophage assay. Type of data set: cell-based, Leishmania donovani. The note with it: for IC50: read-out: IC50 against L. donovani; for inhibition at 50 µM: read-out: Inhibition of parasitemia at 50 μM, 50 μM.
The subject of another data set is J774 macrophages. In words: J774 macrophage toxicity assay. The class given is cell-based, mouse. The note with it: for IC50: Mus musculus, J774, read-out: IC50 against J774 macrophages.
The test system of the next data set is HepG2 cells. In words: HepG2 toxicity assay. The class given is cell-based. Conditions: for IC50: Homo sapiens, HepG2, 72 h, read-out: IC50 against HepG2.
Data set [2] addresses recombinant L. donovani CYP51 (Leishmania donovani, UniProt A0A3S7WRS7). The data set can be described thus: Fluorescence-based L. donovani CYP51 inhibition assay. Type of data set: biochemical.
The nature of data set [3]: Microsomal stability, human liver microsomes. The class given is in vitro ADME. Conditions: for remaining at 1 h, 3 μM: human, liver microsomes. (In general: Microsomes from liver hold many membrane-bound enzymes, among them those of drug oxidation.)
A short description of data set [4]: Microsomal stability, mouse liver microsomes. The class given is in vitro ADME. Conditions: for remaining at 1 h, 3 μM: mouse, liver microsomes.
The mark [5] stands for this setting: Leishmania donovani, Macrophage.
Setting [6] is: Leishmania donovani, Macrophage, intracellular L. donovani, mean ± S.E.M., n=3.
[7] abbreviates: substrate 3 μM, LC-MS detection.

The results in this text go back to article PMC8553517 (ACS infectious diseases, 2021).

As for `N=C(Nc1ccc(OCCn2cncn2)cc1)c1ccccn1` [Compound 9b, N-(4-(2-(1H-1,2,4-triazol-1-yl)ethoxy)phenyl) picolinimidamide], the IC50 in data set [1] (setting [5]) was greater than 100 µM; with J774 macrophages it was greater than 50 µM; in the data set with HepG2 cells, greater than 100 µM; in data set [2] it was 35 ± 2 µM.
For `CCOc1cc(NC(=N)c2ccccn2)ccc1OCCCCCCCCn1ccnc1` [Compound 17b, N-(4-((8-(1H-imidazol-1-yl)octyl)oxy)3-ethoxyphenyl) picolinimidamide], the concentration for half-maximal inhibition (IC50) in data set [1] (setting [5]) was 1.9 ± 0.3 µM; in the data set with J774 macrophages it was 9 ± 1.3 µM; with HepG2 cells it was 13 µM; in data set [2], 0.53 ± 0.02 µM.
Regarding `CC(C)Oc1cc(NC(=N)c2ccccn2)ccc1OCCCCCCCCn1ccnc1` [Compound 17c, N-(4-((8-(1H-imidazol-1-yl)octyl)oxy)3-isopropoxyphenyl) picolinimidamide], the half-inhibitory concentration (IC50) in data set [1] (setting [5]) came out at 0.97 ± 0.07 µM; with J774 macrophages, 7.8 ± 0.3 µM; in the data set on HepG2 cells, 18 ± 1 µM; in data set [2] it was 0.29 ± 0.01 µM. For the same compound, the fraction remaining at 1 h, 3 μM in data set [3] is greater than 80%; in data set [4], 100%.
Turning to `OC(Cn1cncn1)(Cn1cncn1)c1ccc(F)cc1F` [Fluconazole, fluconazole, reference compound], the inhibition at 50 µM in data set [1] (setting [6]) came out at 16 ± 3%. In addition, the IC50 in data set [2] turned out to be 0.96 ± 0.03 µM.
As to `CCN(CC)CCCC(C)Nc1c2ccc(Cl)cc2nc2ccc(OC)cc12` (centres unmarked) [Quinacrine, reference compound], the 50% inhibitory concentration (IC50) with HepG2 cells came out at 5.5 ± 0.7 µM.
Consider `N=C(Nc1ccc(OCCCCCCCCn2ccnc2)cc1)c1ccccc1` [Compound 9n, N-(4-((8-(1H-imidazol-1-yl)octyl)oxy)phenyl)benzimidamide], for which the IC50 is 1.2 ± 0.1 µM in data set [1] (setting [5]), 0.48 ± 0.02 µM in the data set with J774 macrophages, 4.9 ± 1 µM with HepG2 cells and 0.34 ± 0.01 µM in data set [2]. Further, the “Increase in potency against J774 cells compared to 9h” value in the data set on J774 macrophages (compared to 9h) is 22 fold. In the data set with HepG2 cells (compared to 9h), the “Increase in HepG2 activity compared to 9h” value is 2.4 fold.
Turning to `N=C(Nc1ccc(OCCCCCCCCn2ccnc2)c(Cl)c1)c1ccccn1` [Compound 9i, N-(4-((8-(1H-imidazol-1-yl)octyl)oxy)-3-chlorophenyl) picolinimidamide], the IC50 worked out at 1.3 ± 0.2 µM in data set [1] (setting [5]), 6.8 ± 0.7 µM in the data set with J774 macrophages, 7.7 ± 1.5 µM in the data set with HepG2 cells and 0.18 ± 0.01 µM in data set [2]. In addition, in data set [2] (compared to 9h), the “Fold more potent as inhibitor of L. donovani CYP51 compared to 9h” value was “about 2 fold”.
With `COc1cc([C@@H]2c3cc4c(cc3[C@H](O)[C@H]3COC(=O)[C@H]23)OCO4)cc(OC)c1OC` [Podophyllotoxin, reference compound], in the data set with J774 macrophages, the concentration for half-maximal inhibition (IC50) amounted to 0.025 ± 0.001 µM.
As for `N=C(Nc1ccc(OCCCCCCCCCCn2ccnc2)cc1)c1ccccn1` [Compound 9l, N-(4-((10-(1H-imidazol-1-yl)decyl)oxy)phenyl) picolinimidamide], the IC50 in data set [1] (setting [5]) is 1.4 ± 0.2 µM; with J774 macrophages, 4.9 ± 0.9 µM; in the data set with HepG2 cells it was 6.9 ± 1 µM; in data set [2], 0.22 ± 0.01 µM. The “Human liver microsome t1/2” value in data set [3] (setting [7]) came to 0.95 h. Further, in data set [4] (setting [7]), the “Mouse liver microsome t1/2” value is 1.13 h.
Take `COc1cc(OCCCCCCCCn2ccnc2)ccc1NC(=N)c1ccccn1` [Compound 24a, N-(4-((8-(1H-imidazol-1-yl)octyl)oxy)-2-methoxyphenyl) picolinimidamide]: the IC50 in data set [1] (setting [5]) was found to be 1.5 ± 0.4 µM; in the data set with J774 macrophages, 9.3 ± 0.5 µM; in the data set on HepG2 cells, 16 ± 2 µM; in data set [2], 0.36 ± 0.01 µM. Besides, the amount remaining at 1 h, 3 μM in data set [3] and in data set [4] was greater than 80% throughout.
Regarding `N=C(NCCCCCCCCn1ccnc1)c1ccccn1` [Compound 28, N-(8-(1H-imidazol-1-yl)octyl)picolinimidamide], the IC50 (in data set [1] (setting [5]); in the data set on HepG2 cells) was greater than 100 µM in each case.
Consider `COc1cccc2c1C(=O)c1c(O)c3c(c(O)c1C2=O)C[C@@](O)(C(=O)CO)C[C@@H]3O[C@H]1C[C@H](N)[C@H](O)[C@H](C)O1` [Doxorubicin, reference compound], for which the 50% inhibitory concentration (IC50) in the data set on HepG2 cells came to 0.2 ± 0.02 µM.
With `N=C(Nc1ccc(OCCCCn2cncn2)cc1)c1ccccn1` [Compound 9e, N-(4-(4-(1H-1,2,4-triazol-1-yl)butoxy)phenyl) picolinimidamide], the IC50 in data set [1] (setting [5]) was greater than 100 µM; in the data set on J774 macrophages it was greater than 50 µM; with HepG2 cells it was greater than 100 µM; in data set [2], 89 ± 4 µM.
As to `N=C(Nc1ccc(OCCCCCn2ccnc2)cc1)c1ccccn1` [Compound 9f, N-(4-((5-(1H-imidazol-1-yl)pentyl)oxy)phenyl) picolinimidamide], the IC50 in data set [1] (setting [5]) is 13 ± 5 µM; in the data set on J774 macrophages, greater than 50 µM; in the data set on HepG2 cells it was 42 ± 4 µM; in data set [2] it was 4.8 ± 0.1 µM.
Turning to `N=C(Nc1ccc(OCCCCn2ccnc2)cc1)c1ccccn1` [Compound 9d, N-(4-(4-(1H-imidazol-1-yl)butoxy)phenyl) picolinimidamide], the IC50 in data set [1] (setting [5]) was 18 ± 3 µM; with J774 macrophages, greater than 50 µM; in the data set on HepG2 cells, greater than 20 µM; in data set [2], 6.4 ± 0.1 µM.
As to `N=C(Nc1ccc(OCCCCCCCCn2cccc2)cc1)c1ccccn1` [Compound 9m, N-(4-((8-(1H-pyrrol-1-yl)octyl)oxy)phenyl) picolinimidamide], the IC50 was determined as 1.7 ± 0.3 µM in data set [1] (setting [5]), 11 ± 1 µM in the data set with J774 macrophages, 13 ± 2 µM in the data set on HepG2 cells and 14 ± 1 µM in data set [2]. For the same compound, the “Fold less active as a CYP51 inhibitor than 9h” value in data set [2] (compared to 9h) was 39 fold.
For the compound `CCOc1cc(OCCCCCCCCn2ccnc2)ccc1NC(=N)c1ccccn1` [Compound 24b, N-(4-((8-(1H-imidazol-1-yl)octyl)oxy)-2-ethoxyphenyl) picolinimidamide], the IC50 was found to be 0.73 ± 0.15 µM in data set [1] (setting [5]), 6.8 ± 0.1 µM with J774 macrophages, 12 ± 2 µM with HepG2 cells and 0.34 ± 0.01 µM in data set [2]. In addition, the results for the share remaining at 1 h, 3 μM in data set [3] and in data set [4] were greater than 80% and 100%, respectively.
Consider `CC(=O)N1CCN(c2ccc(OCC3COC(Cn4ccnc4)(c4ccc(Cl)cc4Cl)O3)cc2)CC1` (centres unmarked) [Ketoconazole, ketoconazole, reference compound], for which the inhibition at 50 µM in data set [1] (setting [6]) was 50 ± 7%. Besides, in data set [2], the IC50 was found to be 0.048 ± 0.004 µM.
With `N=C(Nc1ccc(OCCCn2ccnc2)cc1)c1ccccn1` [Compound 9c, N-(4-(3-(1H-imidazol-1-yl)propoxy)phenyl) picolinimidamide], the IC50 in data set [1] (setting [5]) was greater than 25 µM; in the data set with J774 macrophages it was greater than 50 µM; with HepG2 cells, greater than 50 µM; in data set [2] it was 22 µM.
Consider `N=C(Nc1ccc(OCCCCCCCCn2ccnc2)cc1Cl)c1ccccn1` [Compound 9j, N-(4-((8-(1H-imidazol-1-yl)octyl)oxy)-2-chlorophenyl) picolinimidamide], for which the IC50 in data set [1] (setting [5]) came out at 2.1 ± 0.2 µM; in the data set with J774 macrophages, 8.6 ± 1.2 µM; with HepG2 cells, 8.6 ± 1.2 µM; in data set [2], 0.15 ± 0.01 µM. For the same compound, the “Fold more potent as inhibitor of L. donovani CYP51 compared to 9h” value in data set [2] (compared to 9h) was “about 2 fold”.
As to `N=C(Nc1ccc(OCCCCCCn2ccnc2)cc1)c1ccccn1` [Compound 9g, N-(4-((6-(1H-imidazol-1-yl)hexyl)oxy)phenyl) picolinimidamide], the IC50 was 8.8 ± 0.6 µM in data set [1] (setting [5]), greater than 40 µM in the data set on J774 macrophages, 20 ± 3 µM in the data set on HepG2 cells and 1.3 ± 0.1 µM in data set [2].
With `CC(C)Oc1cc(NC(=N)c2ccccn2)ccc1-c1ccc(-c2ccc(NC(=N)c3ccccn3)cc2OC(C)C)o1` [Compound 1, reference compound], in data set [2] (at concentrations 5–10 times greater than their IC50 against intracellular L. donovani, M.Z. Wang, unpublished observations), the “Inhibition of L. donovani CYP51 (in words)” value was “weak inhibitors”.
With `N=C(Nc1ccc(OCCn2ccnc2)cc1)c1ccccn1` [Compound 9a, N-(4-(2-(1H-imidazol-1-yl)ethoxy)phenyl) picolinimidamide], the IC50 is greater than 50 µM in data set [1] (setting [5]), greater than 50 µM in the data set with J774 macrophages, greater than 50 µM in the data set on HepG2 cells and 21 ± 1 µM in data set [2].
For the compound `COc1cc(NC(=N)c2ccccn2)ccc1OCCCCCCCCn1ccnc1` [Compound 17a, N-(4-((8-(1H-imidazol-1-yl)octyl)oxy)3-methoxyphenyl) picolinimidamide], the 50% inhibitory concentration (IC50) is 2.2 ± 0.3 µM in data set [1] (setting [5]), 16 ± 1 µM with J774 macrophages, 23 ± 2 µM in the data set with HepG2 cells and 0.57 ± 0.01 µM in data set [2]. Besides, the fraction remaining at 1 h, 3 μM in data set [3] and in data set [4] was 100% each time.
As for `CC[C@@H]([C@H](C)O)n1ncn(-c2ccc(N3CCN(c4ccc(OC[C@@H]5CO[C@@](Cn6cncn6)(c6ccc(F)cc6F)C5)cc4)CC3)cc2)c1=O` [Posaconazole, posaconazole, reference compound], the inhibition at 7.5 µM in data set [1] (Leishmania donovani, Macrophage, read-out: Inhibition of parasitemia at 7.5 μM, 7.5 μM, intracellular L. donovani, mean ± S.E.M., n=3) is 47 ± 2%. In addition, in data set [2], the IC50 is 0.059 ± 0.001 µM.
With `C[C@@H]1[C@H](O)[C@@H](C)/C=C/C=C/C=C/C=C/C=C/C=C/C=C/[C@H](O[C@@H]2O[C@H](C)[C@@H](O)[C@H](N)[C@@H]2O)C[C@@H]2O[C@](O)(C[C@@H](O)C[C@@H](O)[C@H](O)CC[C@@H](O)C[C@@H](O)CC(=O)O[C@H]1C)C[C@H](O)[C@H]2C(=O)O` [Amphotericin B, reference compound], in data set [1] (setting [5]), the IC50 was 0.045 ± 0.003 µM.
Consider `N=C(Nc1ccc(OCCCCCCCCn2cncn2)cc1)c1ccccn1` [Compound 9k, N-(4-((8-(1H-1,2,4-triazol-1-yl)octyl)oxy)phenyl) picolinimidamide], for which, in data set [1] (Leishmania donovani, Macrophage, read-out: Inhibition of parasitemia at 12.5 μM, 12.5 μM, intracellular L. donovani, mean ± S.E.M., n=3), the inhibition at 12.5 µM is roughly 50%. Besides, the “Decrease in potency against intracellular L. donovani compared with 9h” value in data set [1] (compared with 9h) is recorded as greater than 10 fold. For the same compound, the IC50 turned out to be 36 ± 1 µM in the data set on J774 macrophages, 32 ± 5 µM in the data set with HepG2 cells and 1.9 ± 0.1 µM in data set [2].

One may read the IC50 as the concentration that inhibits the measured activity by half. For orientation: share remaining means the share of the starting amount still present when the sample was taken. The inhibition is the share of the control response that was lost under treatment.
